These results are taken from US10420836B2, “Methods of immunizing a subject and compositions related thereto” (priority 2015, dated 2019).

Data set [1] has as its system influenza virus A/Udorn/1972 (H3N2). The format is in vivo, mice. As to conditions: for signs of disease after challenge / body weight loss after challenge: adjuvant with vaccine; for body weight loss after challenge: compared to the other vaccinated groups; for survival: adjuvant co-administered intradermally with 1 μg HA A/Victoria/210/2009 subunit vaccine; for protective immune responses / protective immunity to influenza: used as adjuvant for intradermal influenza vaccination.

Data set [2] deals with A/Victoria/210/2009 subunit influenza vaccine. The format is in vivo, mice. The following applies: after intradermal vaccination with A/Victoria/210/2009 plus adjuvant.
For data set [3], the system named is primary human keratinocytes. The class given is cell-based. As to conditions: primary human keratinocytes (unpublished).
Data set [4] has as its system caspase-1. As to the kind of experiment: Preliminary cell-signaling data (inflammasome / caspase-1 activation).
Data set [5] in a line: Observation for adverse effects after adjuvanted skin vaccination. The class given is in vivo. As to conditions: low doses used for skin vaccination; four months post-adjuvanted vaccination. An excerpt: This modification may improve antigen presentation resulting in protective immunity. […] See Manoury. Proteases: essential actors in processing antigens and intracellular toll-like receptors. Frontiers in immunology 4, 299, (2013). Fullerene is considered as nanoparticle due to its structure that can recruit cells following skin immunization. The toxicity of fullerenes has been reported in Zhang et al., Endocytic mechanisms and toxicity of a functionalized fullerene in human cells. Toxicology letters 191, 149-157, (2009). […] Vaccine adjuvant and vaccine formulations of fullerene derivatives are reported in CN103495164.

Where two headings read alike, the source gives them in different places.

Turning to `CC(C)Cn1cnc2c(N)nc3ccccc3c21` [Imiquimod], in data set [1], the “signs of disease after challenge” value was “fewer signs of disease” and the “body weight loss after challenge” value is “lowest body weight loss”. The “longevity of immune responses” value in data set [1] (combined with vaccine, […]) is “improved”.
Take `O=C(Nc1cc(C(F)(F)F)cc(C(F)(F)F)c1)c1cc(Cl)ccc1O` [IMD 0354, N-(3,5-bis-trifluoromethyl-phenyl)-5-chloro-2-hydroxy-benzamide]: the survival in data set [1] (4×LD50 A/Udorn/1972 challenge) was found to be 100%. In addition, in data set [1], the “body weight loss after challenge” value was “minimal body weight loss” and the “protective immune responses / protective immunity to influenza” value is reported as “improved protective immunity to influenza”. The “Serum IgG2a” value in data set [2] was “increased”.
`O=C1c2c(O)cccc2Cc2cccc(O)c21` [anthralin, 1,8-dihydroxy-9,10-dihydroanthracen-9-one]: in data set [3], the “IL-1 beta and TNF-α production” value is “large amounts”. Further, in data set [1] (4×LD50 A/Udorn/1972 challenge), the survival is given as 80%. In addition, in data set [1], the “signs of disease after challenge” value is “fewer signs of disease” and the “protective immune responses / protective immunity to influenza” value is recorded as “induces protective immune responses”. For the same compound, the survival rate in data set [1] (at three different doses tested (11.9, 119 and 1190 nanomoles) with vaccine, infection with A/Udorn 1972) is listed as at least 80%. Also, the caspase-1 activation entry in data set [4] is “not activated”.
As to `c12c3c4c5c1c1c6c7c2c2c8c3c3c9c4c4c%10c5c5c1c1c6c6c%11c7c2c2c7c8c3c3c8c9c4c4c9c%10c5c5c1c1c6c6c%11c2c2c7c3c3c8c4c4c9c5c1c1c6c2c3c41` [fullerene], the adverse effects result in data set [5] was “no adverse effects”. In addition, the survival in data set [1] ([…]) was determined as 80%. For the same compound, the “protective immune responses / protective immunity to influenza” value in data set [1] is “improved protective immune responses”.
